Test results reported in patent US20240002391A1, “4-ALKOXYPYRROLO[2,1-F][1,2,4]TRIAZINES AND PREPARATION AND USES THEREOF” (BioSplice Therapeutics, Inc., priority 2022, published 2024).

These molecules were tested against recombinant DYRK1A kinase (Homo sapiens (Human), UniProt Q13627) (assay: DYRK1A kinase assay (Ser/Thr 18 peptide Z-lyte FRET)). Details: DYRK1A kinase activity, Z-lyte Ser/Thr 18 peptide, 15 μM ATP; method text calls the value IC50; read-out: EC50 (the source's name).
Assay type: biochemical
Experimental: Representative compounds were screened using the assay procedure for DYRK1A kinase activity as described below.
Each compound was dissolved in DMSO as a 10 mM stock and used to prepare compound source plates. Serial dilution (1:3, 11-point dose-response curves from 10 μM to 0.00016 μM) and compound transfer was performed using the ECHO 550 (Labcyte, Sunnyvale, CA) into 1536-well black-walled round bottom plates (Coming).
The DYRK1A kinase assay was run using the Ser/Thr 18 peptide Z-lyte assay kit according to manufacturer's instructions (Life Technologies-a Division of Thermo-Fisher). This is a non-radioactive assay using fluorescence resonance energy transfer (FRET) between coumarin and fluorescein to detect kinase activity which is represented as a ratio of coumarin emission/fluorescein emission.
Briefly, recombinant DYRK1A kinase, ATP and Ser/Thr peptide 18 were prepared in 1X Kinase buffer to final concentrations of 0.25 μg/mL, 15 μM, and 4 μM respectively. The mixture was allowed to incubate with the representative compounds for one hour at room temperature. All reactions were performed in duplicate. Unphosphorylated (“0% Control”) and phosphorylated (“100% control”) forms of Ser/Thr 18 served as control reactions. Additionally, an 11-point dose-response curve of Staurosporine (luM top) was run to serve as a positive compound control.
After incubation, Development Reagent A was diluted in Development Buffer then added to the reaction and allowed to further incubate for one hour at room temperature. The plate was read at Ex 400 Em 455 to detect the coumarin signal and Ex 400 Em 520 to measure the signal (EnVision Multilabel Plate Reader, PerkinElmer).
The Emission ratio (Em) was calculated as a ratio of the coumarin (C) emission signal (at 445 nm)/Fluorescein (F) emission signal (at 520 nm). The percent phosphorylation was then calculated using the following formula: [1−((Em ratio X F100%)-C100%)/((C0%-C100%) +(Em ratio X (F100%−F0%)))]. Dose-response curves were generated, and inhibitory concentration (IC50) values were calculated using non-linear regression curve fit in the Dotmatics' Studies Software (Bishops Stortford, UK).
`COc1nc(N[C@H]2CN(C)C[C@H]2F)nn2ccc(-c3ccc4nc(C)n(CC(F)F)c4c3)c12` [Compound 113, 5-(1-(2,2-Difluoroethyl)-2-methyl-1H-benzo[d]imidazol-6-yl)-N-((3S,4R)-4-fluoro-1-methylpyrrolidin-3-yl)-4-methoxypyrrolo[2,1-f][1,2,4]triazin-2-amine] gave an IC50 of 3.3 nM.
Molecule `COc1nc(N[C@@H]2CN(C)C[C@@H]2F)nn2ccc(-c3ccc4nc(C)n(CC(F)F)c4c3)c12` [Compound 114, 5-(1-(2,2-Difluoroethyl)-2-methyl-1H-benzo[d]imidazol-6-yl)-N-((3R,4S)-4-fluoro-1-methylpyrrolidin-3-yl)-4-methoxypyrrolo[2,1-f][1,2,4]triazin-2-amine] has an IC50 of 1.9 nM.
With `COc1nc(NC2CCN(C(C)=O)CC2)nn2ccc(-c3ccc4nc(C)n(CC(F)F)c4c3)c12` [Compound 122, 1-(4-((5-(1-(2,2-Difluoroethyl)-2-methyl-1H-benzo[d]imidazol-6-yl)-4-methoxypyrrolo[2,1-f]1[1,2,4]triazin-2-yl)amino)piperidin-1-yl)ethan-1-one] the IC50 was 1.6 nM.
Work on `COc1nc(N[C@@H]2CCN(C)C[C@@H]2F)nn2ccc(-c3ccc4nc(C)n(CC(F)F)c4c3)c12` [Compound 124, 5-(1-(2,2-Difluoroethyl)-2-methyl-1H-benzo[d]imidazol-6-yl)-N-((3S,4R)-3-fluoro-1-methylpiperidin-4-yl)-4-methoxypyrrolo[2,1-f][1,2,4]triazin-2-amine] yielded an IC50 of 2.8 nM.
Work on `COc1nc(N[C@H]2CCN(C)C[C@H]2F)nn2ccc(-c3ccc4nc(C)n(CC(F)F)c4c3)c12` [Compound 127, 5-(1-(2,2-Difluoroethyl)-2-methyl-1H-benzo[d]imidazol-6-yl)-N-((3R,4S)-3-fluoro-1-methylpiperidin-4-yl)-4-methoxypyrrolo[2,1-f][1,2,4]triazin-2-amine] yielded an IC50 of 2.2 nM.
For `COc1nc(N[C@@H]2CCN(CCF)C[C@@H]2F)nn2ccc(-c3ccc4nc(C)n(CC(F)F)c4c3)c12` [Compound 129, 5-(1-(2,2-Difluoroethyl)-2-methyl-1H-benzo[d]imidazol-6-yl)-N-((3S,4R)-3-fluoro-1-(2-fluoroethyl)piperidin-4-yl)-4-methoxypyrrolo[2,1-f][1,2,4]triazin-2-amine], the IC50 was 2.6 nM.
`COc1nc(N[C@H]2CCN(C3COC3)C[C@H]2F)nn2ccc(-c3ccc4nc(C)n(CC(F)F)c4c3)c12` [Compound 137, 5-(1-(2,2-Difluoroethyl)-2-methyl-1H-benzo[d]imidazol-6-yl)-N-((3R,4S)-3-fluoro-1-(oxetan-3-yl)piperidin-4-yl)-4-methoxypyrrolo[2,1-f][1,2,4]triazin-2-amine] showed an IC50 of 1.9 nM.
`COc1nc(N[C@@H]2CCN(C)CC2(F)F)nn2ccc(-c3ccc4nc(C)n(CC(F)F)c4c3)c12` [Compound 138, (R)—N-(3,3-Difluoro-1-methylpiperidin-4-yl)-5-(1-(2,2-difluoroethyl)-2-methyl-1H-benzo[d]imidazol-6-yl)-4-methoxypyrrolo[2,1-f][1,2,4]triazin-2-amine] gave an IC50 of 4.3 nM.
For `COc1nc(N[C@H]2CCN(C)CC2(F)F)nn2ccc(-c3ccc4nc(C)n(CC(F)F)c4c3)c12` [Compound 139, (S)—N-(3,3-Difluoro-1-methylpiperidin-4-yl)-5-(1-(2,2-difluoroethyl)-2-methyl-1H-benzo[d]imidazol-6-yl)-4-methoxypyrrolo[2,1-f][1,2,4]triazin-2-amine], the IC50 was 6.9 nM.
`COc1nc(N[C@@H]2CCN(C3CCC3)CC2(F)F)nn2ccc(-c3ccc4nc(C)n(CC(F)F)c4c3)c12` [Compound 140, (R)—N-(1-Cyclobutyl-3,3-difluoropiperidin-4-yl)-5-(1-(2,2-difluoroethyl)-2-methyl-1H-benzo[d]imidazol-6-yl)-4-methoxypyrrolo[2,1-f][1,2,4]triazin-2-amine] showed an IC50 of 10.7 nM.
Work on `COc1nc(N[C@H]2CCN(C3CCC3)CC2(F)F)nn2ccc(-c3ccc4nc(C)n(CC(F)F)c4c3)c12` [Compound 141, (S)—N-(1-Cyclobutyl-3,3-difluoropiperidin-4-yl)-5-(1-(2,2-difluoroethyl)-2-methyl-1H-benzo[d]imidazol-6-yl)-4-methoxypyrrolo[2,1-f][1,2,4]triazin-2-amine] yielded an IC50 of 21.8 nM.
`COc1nc(N[C@@H]2CCN(C3COC3)CC2(F)F)nn2ccc(-c3ccc4nc(C)n(CC(F)F)c4c3)c12` [Compound 142, (R)—N-(3,3-Difluoro-1-(oxetan-3-yl)piperidin-4-yl)-5-(1-(2,2-difluoroethyl)-2-methyl-1H-benzo[d]imidazol-6-yl)-4-methoxypyrrolo[2,1-f][1,2,4]triazin-2-amine] showed an IC50 of 2.7 nM.
`COc1nc(N[C@H]2CCN(C3COC3)CC2(F)F)nn2ccc(-c3ccc4nc(C)n(CC(F)F)c4c3)c12` [Compound 143, (S)—N-(3,3-Difluoro-1-(oxetan-3-yl)piperidin-4-yl)-5-(1-(2,2-difluoroethyl)-2-methyl-1H-benzo[d]imidazol-6-yl)-4-methoxypyrrolo[2,1-f][1,2,4]triazin-2-amine] showed an IC50 of 10.8 nM.
`COc1nc(N[C@H]2C[C@@](C)(NC(C)=O)C2)nn2ccc(-c3cc(F)c4nc(C)n(CC(F)F)c4c3)c12` [Compound 148, N-((1s,3s)-3-((5-(1-(2,2-Difluoroethyl)-4-fluoro-2-methyl-1H-benzo[d]imidazol-6-yl)-4-methoxypyrrolo[2,1-f][1,2,4]triazin-2-yl)amino)-1-methylcyclobutyl)acetamide] showed an IC50 of 1.8 nM.
`COc1nc(N[C@H]2C[C@](C)(NC(C)=O)C2)nn2ccc(-c3cc(F)c4nc(C)n(CC(F)F)c4c3)c12` [Compound 149, N-((1r,3r)-3-((5-(1-(2,2-Difluoroethyl)-4-fluoro-2-methyl-1H-benzo[d]imidazol-6-yl)-4-methoxypyrrolo[2,1-f][1,2,4]triazin-2-yl)amino)-1-methylcyclobutyl)acetamide] gave an IC50 of 1.5 nM.
Work on `COc1nc(N[C@H]2CC[C@](C)(O)CC2)nn2ccc(-c3cc(F)c4nc(C)n(CC(F)F)c4c3)c12` [Compound 151, trans-4-((5-(1-(2,2-difluoroethyl)-4-fluoro-2-methyl-1H-benzo[d]imidazol-6-yl)-4-methoxypyrrolo[2,1-f][1,2,4]triazin-2-yl)amino)-1-methylcyclohexan-1-ol] yielded an IC50 of 1.7 nM.
`COc1nc(N[C@@H]2CCN(C3COC3)C[C@H]2F)nn2ccc(-c3cc(F)c4nc(C)n(CC(F)F)c4c3)c12` [Compound 159, 5-(1-(2,2-Difluoroethyl)-4-fluoro-2-methyl-1H-benzo[d]imidazol-6-yl)-N-((3R,4R)-3-fluoro-1-(oxetan-3-yl)piperidin-4-yl)-4-methoxypyrrolo[2,1-f][1,2,4]triazin-2-amine] showed an IC50 of 2.9 nM.
Molecule `COc1nc(N[C@H]2CCN(C3COC3)C[C@H]2F)nn2ccc(-c3cc(F)c4nc(C)n(CC(F)F)c4c3)c12` [Compound 161, 5-(1-(2,2-Difluoroethyl)-4-fluoro-2-methyl-1H-benzo[d]imidazol-6-yl)-N-((3R,4S)-3-fluoro-1-(oxetan-3-yl)piperidin-4-yl)-4-methoxypyrrolo[2,1-f][1,2,4]triazin-2-amine] has an IC50 of 3 nM.
`COc1nc(N[C@@H]2CCN(C3COC3)CC2(F)F)nn2ccc(-c3cc(F)c4nc(C)n(CC(F)F)c4c3)c12` [Compound 164, (R)—N-(3,3-Difluoro-1-(oxetan-3-yl)piperidin-4-yl)-5-(1-(2,2-difluoroethyl)-4-fluoro-2-methyl-1H-benzo[d]imidazol-6-yl)-4-methoxypyrrolo[2,1-f][1,2,4]triazin-2-amine] showed an IC50 of 2.1 nM.
`COc1nc(N[C@H]2CC[C@](C)(O)CC2)nn2ccc(-c3cc(F)c4nc(C)n(C(C)C)c4c3)c12` [Compound 168, trans-4-((5-(4-Fluoro-1-isopropyl-2-methyl-1H-benzo[d]imidazol-6-yl)-4-methoxypyrrolo[2,1-f][1,2,4]triazin-2-yl)amino)-1-methylcyclohexan-1-ol] gave an IC50 of 2.7 nM.
`COc1nc(N[C@H]2C[C@@](C)(O)C2)nn2ccc(-c3ccc4nc(C)n(CCO)c4c3)c12` [Compound 169, cis-3-((5-(1-(2-Hydroxyethyl)-2-methyl-1H-benzo[d]imidazol-6-yl)-4-methoxypyrrolo[2,1-f][1,2,4]triazin-2-yl)amino)-1-methylcyclobutan-1-ol] gave an IC50 of 2.1 nM.
With `COc1nc(N[C@H]2C[C@](C)(O)C2)nn2ccc(-c3ccc4nc(C)n(CCO)c4c3)c12` [Compound 170, trans-3-((5-(1-(2-Hydroxyethyl)-2-methyl-1H-benzo[d]imidazol-6-yl)-4-methoxypyrrolo[2,1-f][1,2,4]triazin-2-yl)amino)-1-methylcyclobutan-1-ol] the IC50 was 8.6 nM.
In the case of `COc1nc(N[C@H]2C[C@](C)(NC(C)=O)C2)nn2ccc(-c3ccc4nc(C)n(CCO)c4c3)c12` [Compound 171, N-(trans-3-((5-(1-(2-Hydroxyethyl)-2-methyl-1H-benzo[d]imidazol-6-yl)-4-methoxypyrrolo[2,1-f][1,2,4]triazin-2-yl)amino)-1-methylcyclobutyl)acetamide], the IC50 is reported as 2.9 nM.
